pIC50: −log10 of the molar value.
Columns and labels:
[1] = biological target: T1, Amine oxidase [flavin-containing] A (Homo sapiens, UniProt P21397); experiment: MAO Inhibition Assay
T1 sequence (P21397 whole entry): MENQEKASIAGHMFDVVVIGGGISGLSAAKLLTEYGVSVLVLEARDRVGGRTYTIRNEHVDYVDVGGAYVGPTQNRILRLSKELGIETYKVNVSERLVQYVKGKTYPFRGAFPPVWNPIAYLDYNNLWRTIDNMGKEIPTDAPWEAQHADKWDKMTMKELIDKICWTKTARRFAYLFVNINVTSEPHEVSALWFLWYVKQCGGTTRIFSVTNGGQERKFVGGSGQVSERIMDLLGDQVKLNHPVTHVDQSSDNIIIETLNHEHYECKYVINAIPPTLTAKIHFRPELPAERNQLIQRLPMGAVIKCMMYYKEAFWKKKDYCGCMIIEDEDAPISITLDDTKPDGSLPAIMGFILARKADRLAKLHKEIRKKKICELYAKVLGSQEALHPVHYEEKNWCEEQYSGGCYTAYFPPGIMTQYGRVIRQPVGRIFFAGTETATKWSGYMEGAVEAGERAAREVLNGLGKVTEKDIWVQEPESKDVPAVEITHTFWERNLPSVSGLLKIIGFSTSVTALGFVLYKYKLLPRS
Procedure: (§1) The protocol for measuring IC50 values for the inhibition of MAO-A and MAO-B has been reported in detail in a recent publication (26). The recombinant human MAO enzymes were used, and kynuramine served as non-selective MAO substrate. The MAOs oxidize kynuramine to ultimately yield a fluorescent metabolite, 4-hydroxyquinoline, which was measured by fluorescence spectrophotometry (kex = 310; kem = 400 nm).

[2] = biological target: T2, Amine oxidase (Homo sapiens, UniProt Q8TBI1); experiment: MAO Inhibition Assay
T2 sequence (Q8TBI1 whole entry): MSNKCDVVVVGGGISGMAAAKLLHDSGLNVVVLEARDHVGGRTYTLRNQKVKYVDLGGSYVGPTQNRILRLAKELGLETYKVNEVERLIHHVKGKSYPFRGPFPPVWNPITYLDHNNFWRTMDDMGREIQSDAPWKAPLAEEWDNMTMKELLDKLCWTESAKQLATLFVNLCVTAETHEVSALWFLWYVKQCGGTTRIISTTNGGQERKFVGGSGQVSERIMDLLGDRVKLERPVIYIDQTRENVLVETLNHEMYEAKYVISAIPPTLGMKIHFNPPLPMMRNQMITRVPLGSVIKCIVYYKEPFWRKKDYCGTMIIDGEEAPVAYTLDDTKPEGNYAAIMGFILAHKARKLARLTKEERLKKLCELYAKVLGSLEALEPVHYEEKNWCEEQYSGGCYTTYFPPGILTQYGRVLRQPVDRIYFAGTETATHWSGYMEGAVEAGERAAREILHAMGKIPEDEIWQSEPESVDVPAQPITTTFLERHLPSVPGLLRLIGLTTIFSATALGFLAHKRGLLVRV
Procedure: as §1

Structure (SMILES) | pIC50 [1] | pIC50 [2]
O=C1C(Cl)=C(Cl)C(=O)c2ccccc21 [2,3-dichloro-1,4-dihydronaphthalene-1,4-dione] | 5.70 | 5.58
O=C1C=CC(=O)c2c(O)cccc21 [5-hydroxy-1,4-dihydronaphthalene-1,4-dione] | 5.77 | 5.36
CC1=CC(=O)c2c(O)cccc2C1=O | 5.31 | 5.96
CC1=CC(=O)c2ccccc2C1=O [Vitamin K3] | 4.99 | 5.52
COC1=CC(=O)c2ccccc2C1=O | 4.69 | 4.61
O=C1C(Cl)=C(OCCCCO)C(=O)c2ccccc21 [2-chloro-3-(4-hydroxybutoxy)-1,4-dihydronaphthalene-1,4-dione (5h)] | 5.30 | 5.51
O=C1C(O)=C(Cl)C(=O)c2ccccc21 [2-chloro-3-hydroxy-1,4-dihydronaphthalene-1,4-dione (5g)] |  | 5.46
O=C1C=CC(=O)c2ccccc21 [1,4-dihydronaphthalene-1,4-dione] | 5.46 | 5.08
O=C1C=CC(=O)c2c(O)ccc(O)c21 [5,8-dihydroxy-1,4-naphthoquinone] |  | 6.07
CC(C)=CCC(O)C1=CC(=O)c2c(O)ccc(O)c2C1=O (centres undefined) [5,8-dihydroxy-2-(1-hydroxy-4-methylpent-3-enyl)naphthalene-1,4-dione] | 5.82 | 6.00
CC1=C(CCl)C(=O)c2ccccc2C1=O [2-(chloromethyl)-3-methyl-1,4-dihydronaphthalene-1,4-dione (5f)] |  | 4.97
